Key:
msP rats [1] = test: Yohimbine-induced reinstatement of alcohol seeking in msP rats; type: in vivo, rat; conditions: yohimbine 1.25 mg/kg i.p.; p<0.001
Procedure: The study was conducted using standard operant chambers (Med Associate, St Albans, Vt.) located in sound-attenuating, ventilated environmental cubicles. Each chamber was equipped with a drinking reservoir (volume capacity: 0.30 ml) positioned 4 cm above the grid floor in the centre of the front panel of the chamber, and two retractable levers located 3 cm to the right or to the left of the drinking receptacle. Auditory and visual stimuli were presented via a speaker and a light located on the front panel. A microcomputer controlled the delivery of fluids, presentation of auditory and visual stimuli, and recording of the behavioral data.
During the first 6 days of training, rats were allowed to lever-press for a 10% (v/v) alcohol solution containing 0.2% (w/v) saccharin solution, on a FR-1 schedule. In the following days, msP rats were trained to self-administer 10% alcohol solution (v/v) on a FR-1, time out 5 second (TO 5 s.) schedule of reinforcement. The TO period was signalled by illumination of a white house light above the right lever for 5 s. 10% (v/v) alcohol self-administration continued until stable baseline of responding was achieved.
After the last alcohol self-administration session, animals were subjected to 30-min extinction sessions. […]

Wistar rats = test: Yohimbine-induced reinstatement of nicotine seeking in Wistar rats; type: in vivo, rat; conditions: yohimbine 1.25 mg/kg IP; p<0.001
Procedure: Animals are anesthetized by intramuscular injection of 100-150 μl of a solution containing tiletamine cloridrate (58.17 mg/ml) and zolazepam cloridrate (57.5 mg/ml). For IV surgery, incisions are made to expose the right jugular vein. A catheter made from micro-renathane tubing (I.D.=0.020 inches, O.D.=0.037 inches) is subcutaneously positioned between the vein and the back. After insertion into the vein, the proximal end of the catheter is anchored to the muscles underlying the vein with surgical silk. The distal end of the catheter is attached to a stainless-steel cannula bent at a 90° angle. The cannula is inserted in a support made by dental cement on the back of the animals covered with a plastic cap. […] Body weights are monitored every day and catheter patency is confirmed approximately every 3 days with an injection of 0.2-0.3 ml of thiopental sodium (250 mg/ml) solution. […]
The day after the last extinction session, in a within subject counterbalanced design animals are given Andrographis Paniculata extract OS at the doses of 0, 150; 450 mg/kg, given 1 hour prior to administration of yohimbine (1.25 mg/kg) or its vehicle. 30 minutes following the administration of yohimbine, animals (N=15) are placed in the self-administration apparatus, and lever pressesis recorded for 2 hours. […]

msP rats [2] = test: Two-bottle choice paradigm, voluntary 10% alcohol intake in msP rats; type: in vivo, rat; conditions: 3 days
Excerpt: Male genetically selected alcohol-preferring rats were used. They were bred at the Department of Experimental Medicine and Public Health of the University of Camerino (Marche, Italy) for 64 generations from Sardinian alcohol-preferring (sP) rats of the 13th generation, provided by the Department of Neurosciences of the University of Cagliari (Colombo et al, 2006). They are referred to as Marchigian sP (msP) rats (Ciccocioppo et al, 2006). At the time of the experiments their body weight ranged between 300 and 350 g. They were kept in single cages in a room with a reverse 12:12 h light/dark cycle (lights off at 9:30 a.m.), temperature of 20-22° C. and humidity of 45-55%. […]
A widely used method for testing fluid preference is the two-bottle choice paradigm, in which water and 10% (v/v) alcohol solution were offered in graduated drinking tubes equipped with metallic drinking spouts and their consumption was measured by reading the volume consumed from the graduated tubes. Food intake was measured by weighing the food containers and taking into account spillage. Alcohol, water and food intakes are expressed as g/kg to reduce the influence of differences in body weight. […]
Alcohol, water and food intake were monitored daily at 0.5, 2, 8 and 24 hours. For all the experiments performed, intakes were recorded for several additional days after the end of the drug treatment period. […]

msP rats [3] = test: Central PPAR antagonist GW9662 on andrographolide-induced reduction of alcohol intake in msP rats; type: in vivo, rat; conditions: andrographolide 10 mg/kg, 6 consecutive days; 2, 8 and 24 hours
Procedure: GW9662, purchased from Tocris (Bristol, UK), was dissolved in 10% DMSO and 3% Tween 80 and the final volume (5 μg/μl) was adjusted adding distilled water. GW9662 was injected ICV in a volume of 1 μl per rat by means of a stainless-steel injector 2.5 mm longer than the guide cannula, so that its tip protruded into the ventricle.
A 22-gauge guide cannula for intracerebroventricular (ICV) drug injections was stereotaxically implanted into the lateral cerebroventricle with the following coordinates: anteroposterior (AP)=1.0; lateral (L)=1.8; ventral (V)=2.0 with reference to bregma.
A widely used method for testing fluid preference is the two-bottle choice paradigm, in which water and 10% (v/v) alcohol solution were offered in graduated drinking tubes equipped with metallic drinking spouts and their consumption was measured by reading the volume consumed from the graduated tubes. Food intake was measured by weighing the food containers and taking into account spillage. Alcohol, water and food intakes are expressed as g/kg to reduce the influence of differences in body weight.
To examine whether the effect of andrographolide on alcohol intake is mediated by brain PPAR receptors, another group of msP rats (N=31) was treated ICV with 5 μg/rat of the PPAR antagonist GW9662 and then injected with andrographolide (10 mg/kg) or its vehicle. In a between-subject design each group of animals (N=7-8/group) received a different drug dose for 6 consecutive days. GW9662 or its vehicle were administered twice daily at 12 hours and 30 minutes before the beginning of the dark period of the light-dark cycle. Andrographolide was given immediately after GW9662 administrations.
Alcohol, water, and food intake was recorded at 0.5, 2, 8 and 24 hours from the moment that alcohol was made available.

[4] = in vivo, cited from earlier work
[5] = cited from earlier work
[6] = clinical study; cited from earlier work
[7] = system: rat model of cerebral ischemia; conditions: in vivo; cited from earlier work
[8] = system: LPS-stimulated macrophages; conditions: cited from earlier work

COC(=O)[C@@H]1[C@H]2C[C@H]3c4[nH]c5ccccc5c4CCN3C[C@@H]2CC[C@@H]1O [yohimbine]
reinstatement of operant response for alcohol vs extinction (msP rats [1]): significantly reinstated the operant response for alcohol
reinstatement of responding for nicotine vs extinction (Wistar rats): significant reinstatement of responding

C=C1CC[C@@H]2[C@](C)(CO)[C@H](O)CC[C@@]2(C)[C@@H]1C/C=C1/C(=O)OC[C@H]1O [andrographolide]
voluntary alcohol intake (msP rats [2]; andrographolide 5 mg/kg i.p. twice daily): a statistical difference from controls was observed the last day of treatment for all the time points
voluntary alcohol intake (msP rats [2]; andrographolide 10 mg/kg i.p. twice daily (12 h and 30 min before dark period)): the effect appeared from the second day of treatment (Day 3) and remained significant throughout the treatment period
alcohol drinking (msP rats [3]): reduced alcohol consumption starting from the second day and for the entire duration of treatment
oral bioavailability ([4]; po): low
binding to plasma proteins [4]: high
aqueous solubility [5]: low
ability to cross the brain-blood barrier [6]: cross the brain-blood barrier
neuroprotective effects [7]: clear neuroprotective effects
production of TNF-α, IL-1β and IL-12 [8]: inhibits

Source: US20140072662A1, “Andrographis Paniculata Compositions and Methods for Treatment of Addictions” (Omeros Corporation, priority 2012, published 2014)
